Results: ChEMBL document CHEMBL1201862, “PubChem BioAssay data set” (2004)
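Assay format: 96-well plates, 48-hour exposure. Abbreviation: GI50, concentration required for 50% inhibition of growth.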 Calls of active or inactive are those of the source. No stated cut-off is given here; in the data, active = GI50 up to about 1.1 µM and inactive = higher.

How the values were obtained:
Assay in all cases: DTP human tumour cell line panel, 48 h
786-0 = system: 786-0
A498 = system: A498
A549 = system: A549
ACHN = system: ACHN
BT-549 = system: BT-549
CAKI-1 = system: CAKI-1
CCRF-CEM = system: CCRF-CEM
COLO 205 = system: COLO 205
DU-145 = system: DU-145
EKVX = system: EKVX
HCC 2998 = system: HCC 2998
HCT-116 = system: HCT-116
HCT-15 = system: HCT-15
HL-60 = system: HL-60
HOP-62 = system: HOP-62
HOP-92 = system: HOP-92
HT-29 = system: HT-29
Hs-578T = system: Hs-578T
IGROV-1 = system: IGROV-1
K562 = system: K562
KM12 = system: KM12
LOX IMVI = system: LOX IMVI
M14 = system: M14
MCF7 = system: MCF7
MDA-MB-231 = system: MDA-MB-231
MDA-MB-435 = system: MDA-MB-435
MDA-N = system: MDA-N
MOLT-4 = system: MOLT-4
Malme-3M = system: Malme-3M
NCI-H226 = system: NCI-H226
NCI-H23 = system: NCI-H23
NCI-H460 = system: NCI-H460
NCI-H522 = system: NCI-H522
NCI/ADR-RES = system: NCI/ADR-RES
OVCAR-3 = system: OVCAR-3
OVCAR-4 = system: OVCAR-4
OVCAR-5 = system: OVCAR-5
OVCAR-8 = system: OVCAR-8
PC-3 = system: PC-3
RPMI-8226 = system: RPMI-8226
RXF 393 = system: RXF 393
SF-268 = system: SF-268
SF-295 = system: SF-295
SF-539 = system: SF-539
SK-MEL-28 = system: SK-MEL-28
SK-MEL-2 = system: SK-MEL-2
SK-MEL-5 = system: SK-MEL-5
SK-OV-3 = system: SK-OV-3
SN12C = system: SN12C
SNB-19 = system: SNB-19
SR = system: SR
SW-620 = system: SW-620
T47D = system: T47D
TK-10 = system: TK-10
U-251 = system: U-251
UACC-257 = system: UACC-257
UACC-62 = system: UACC-62
UO-31 = system: UO-31
SNB-75 = system: SNB-75

In the case of CC1=C(C(=O)OCCO[N+](=O)[O-])C(c2ccccc2[N+](=O)[O-])C(C(=O)OC(C)C)=C(C)N1 (configuration not stated), the GI50 (786-0) is reported as 16.6 µM (inactive), the GI50 (A498) is reported as 20.7 µM (inactive) and the GI50 (A549) is reported as 16.3 µM (inactive). The GI50 (ACHN) was 13.1 µM (inactive), the GI50 (BT-549) was 16.5 µM (inactive) and the GI50 (CAKI-1) was 17 µM (inactive). The GI50 (CCRF-CEM) was 33.2 µM (inactive), the GI50 (COLO 205) was 15.1 µM (inactive) and the GI50 (DU-145) was 20.7 µM (inactive). For the same molecule, the GI50 (EKVX) was 18.3 µM (inactive), the GI50 (HCC 2998) was 16 µM (inactive) and the GI50 (HCT-116) was 15.4 µM (inactive). For the same molecule, the GI50 (HCT-15) was 16.6 µM, the GI50 (HL-60) was 39.3 µM (inactive) and the GI50 (HOP-62) was 18.2 µM (inactive). For the same molecule, the GI50 (HOP-92) was 14.5 µM (inactive), the GI50 (HT-29) was 15.7 µM (inactive) and the GI50 (Hs-578T) was 14.8 µM (inactive). The GI50 (IGROV-1) was 15.6 µM (inactive), the GI50 (K562) was 49.1 µM (inactive) and the GI50 (KM12) was 13.8 µM (inactive). The GI50 (LOX IMVI) was 17.7 µM (inactive), the GI50 (M14) was 15.8 µM (inactive) and the GI50 (MCF7) was 19.9 µM (inactive). The GI50 (MDA-MB-231) was 15.6 µM (inactive), the GI50 (MDA-MB-435) was 15 µM (inactive) and the GI50 (MDA-N) was 17.2 µM (inactive). For the same molecule, the GI50 (MOLT-4) was 40.9 µM (inactive), the GI50 (Malme-3M) was 17.3 µM (inactive) and the GI50 (NCI-H226) was 14 µM (inactive). For the same molecule, the GI50 (NCI-H23) was 20.7 µM (inactive), the GI50 (NCI-H460) was 15.5 µM (inactive) and the GI50 (NCI-H522) was 16 µM (inactive). For the same molecule, the GI50 (NCI/ADR-RES) was 16.8 µM (inactive), the GI50 (OVCAR-3) was 13 µM (inactive) and the GI50 (OVCAR-4) was 18 µM (inactive). The GI50 (OVCAR-5) was 14.9 µM (inactive), the GI50 (OVCAR-8) was 22.5 µM (inactive) and the GI50 (PC-3) was 8.17 µM (inactive). For the same molecule, the GI50 (RPMI-8226) was 84.9 µM (inactive), the GI50 (RXF 393) was 14.3 µM (inactive) and the GI50 (SF-268) was 20.4 µM (inactive). For the same molecule, the GI50 (SF-295) was 15.7 µM (inactive), the GI50 (SF-539) was 17.7 µM (inactive) and the GI50 (SK-MEL-28) was 16.5 µM (inactive). The GI50 (SK-MEL-2) was 15.6 µM (inactive), the GI50 (SK-MEL-5) was 13.9 µM (inactive) and the GI50 (SK-OV-3) was 21.2 µM (inactive). For the same molecule, the GI50 (SN12C) was 17.6 µM (inactive), the GI50 (SNB-19) was 18 µM (inactive) and the GI50 (SR) was 44.9 µM (inactive). The GI50 (SW-620) was 19.2 µM (inactive), the GI50 (T47D) was 13 µM (inactive) and the GI50 (TK-10) was 21.8 µM (inactive). The GI50 (U-251) was 16.2 µM (inactive), the GI50 (UACC-257) was 15.3 µM (inactive) and the GI50 (UACC-62) was 14.1 µM (inactive). The GI50 (UO-31) was 13.2 µM (inactive).

For CCOC(=O)c1cc(C)nc2c1c(=O)n(-c1ccccc1)c(=O)n2CCCCN1CCN(c2ncccn2)CC1, the GI50 (786-0) was > 100 µM (inactive), the GI50 (A498) was 20.8 µM (inactive) and the GI50 (A549) was > 100 µM (inactive). The GI50 (ACHN) was > 100 µM (inactive), the GI50 (BT-549) was 45.1 µM (inactive) and the GI50 (CAKI-1) was 23.4 µM (inactive). The GI50 (CCRF-CEM) was 31.8 µM (inactive), the GI50 (COLO 205) was 60.1 µM (inactive) and the GI50 (DU-145) was > 100 µM (inactive). The GI50 (EKVX) was > 100 µM (inactive), the GI50 (HCC 2998) was > 100 µM (inactive) and the GI50 (HCT-116) was 85.5 µM (inactive). For the same molecule, the GI50 (HL-60) was 25.4 µM (inactive), the GI50 (HOP-62) was > 100 µM (inactive) and the GI50 (HOP-92) was 34.6 µM (inactive). The GI50 (HT-29) was > 100 µM (inactive), the GI50 (Hs-578T) was > 100 µM (inactive) and the GI50 (IGROV-1) was > 100 µM (inactive). For the same molecule, the GI50 (K562) was 39.1 µM (inactive), the GI50 (KM12) was > 100 µM (inactive) and the GI50 (LOX IMVI) was 56.9 µM (inactive). The GI50 (M14) was > 100 µM (inactive), the GI50 (MCF7) was > 100 µM (inactive) and the GI50 (MDA-MB-231) was 80.7 µM (inactive). For the same molecule, the GI50 (MDA-MB-435) was > 100 µM (inactive), the GI50 (MDA-N) was > 100 µM (inactive) and the GI50 (MOLT-4) was 11.3 µM (inactive). For the same molecule, the GI50 (Malme-3M) was > 100 µM (inactive), the GI50 (NCI-H226) was > 100 µM (inactive) and the GI50 (NCI-H23) was > 100 µM (inactive). For the same molecule, the GI50 (NCI-H522) was > 100 µM (inactive), the GI50 (NCI/ADR-RES) was > 100 µM (inactive) and the GI50 (OVCAR-3) was 94 µM (inactive). For the same molecule, the GI50 (OVCAR-5) was > 100 µM (inactive), the GI50 (OVCAR-8) was > 100 µM (inactive) and the GI50 (PC-3) was 61.4 µM (inactive). The GI50 (RPMI-8226) was 23.8 µM (inactive), the GI50 (RXF 393) was > 100 µM (inactive) and the GI50 (SF-268) was > 100 µM (inactive). For the same molecule, the GI50 (SF-295) was > 100 µM (inactive), the GI50 (SK-MEL-28) was > 100 µM (inactive) and the GI50 (SK-MEL-2) was > 100 µM (inactive). For the same molecule, the GI50 (SK-MEL-5) was 35.2 µM (inactive), the GI50 (SK-OV-3) was > 100 µM (inactive) and the GI50 (SN12C) was > 100 µM (inactive). For the same molecule, the GI50 (SNB-75) was 59 µM (inactive), the GI50 (SR) was 29.9 µM (inactive) and the GI50 (SW-620) was > 100 µM (inactive). The GI50 (T47D) was 43.5 µM (inactive), the GI50 (TK-10) was > 100 µM (inactive) and the GI50 (U-251) was > 100 µM (inactive). For the same molecule, the GI50 (UACC-257) was 52.4 µM (inactive), the GI50 (UACC-62) was 37.2 µM (inactive) and the GI50 (UO-31) was 38.5 µM (inactive).
